This note sets out measurements from patent EP4491190A1, “SMALL PROTEINS FOR USE AS SENOLYTIC AND SENOMORPHIC AGENTS” (Fundación Imdea Alimentación, priority 2023, dated 2025).

Format in all cases: cell-based, human
The subject of test [1] is SKMel-103, A549, Huh7, SH-SY5Y cells. Put plainly: MTT cell viability in different models of cellular senescence and cancer cell lines. The settings on record: senescent cancerous cell lines, senescence by doxorubicin, bleomycin or palbociclib. The protocol: (§1) Cells were plated in 96 well plates at a density of 3×10^3-8×10^3 cells/well (proliferative) or 8×10^3-10×10^3 cells/well (senescent). An MTT assay (Sigma-Aldrich, Merck KGaA, Darmstadt, Germany) was used to measure cell viability after 48-96 h of treatments. Briefly, MTT was diluted in 0.1 M phosphate buffered saline (PBS) and added to cells grown in 96-well plates at a final concentration of 0.5 mg/ml. After incubation for 2-4 hr at 37°C with MTT, the culture medium was removed. The precipitated formazan was solubilized with dimethyl sulfoxide (DMSO). Absorbance was measured at 570 nm using a microplate reader (Victor Nivo; Perkin Elmer, Hamburg, Germany). For these assays, the effects of vehicle or treatments were expressed as the % of change of the non-treated cells.
Next, it was evaluated the senolytic capacity of Tvs1 in different models of cellular senescence and cancer cell lines. For that purpose, chemotherapy known to induce cellular senescence by genotoxic damage (doxorubicin and bleomycin) or by inhibiting cyclin-dependent kinases (palbociclib) was used. Cellular models of melanoma, lung adenocarcinoma (A549), hepatoma (Huh7) and neuroblastoma (SH-SY5Y) were used. Tvs1G consistently produced a senolytic effect in all the cancerous cell lines tested independently of the stimulus for achieving cellular senescence (Figure 2, Figures 4F, 4G, 4H). […]

Test [2] has as its system senescent HGPS skin fibroblast. Put plainly: Senolysis in HGPS skin fibroblasts (viability, β-galactosidase staining). The settings on record: 48h. The protocol: All human cancer cell lines and the non-transformed fibroblast lines were maintained in a humidified incubator at 37°C and 5% CO2 and used between passages 4 and 15. All lines were frequently checked and ensured to be mycoplasma free. Cells were split twice a week and before archiving an 90% confluency. SKMel103, SH-SY5Y, Huh7, A549, U251 were donated from collaborators or obtained from the Translational Venomics' stock. Primary lung fibroblasts (PCS201013) and primary dermal fibroblasts (PCS201012) were purchased from ATCC (Manassas, VA, USA). Skin fibroblasts from Hutchinson-Gilford progeria syndrome donors were purchase from the Progeria Research Foundation (HGADFN 127, 143, 167, 178) or Coriell Institute (AG01972E, AG06917K and AG11513F). The cells were maintained following the recommendations of the cell banks.
Cells were plated in 96 well plates at a density of 3×10^3-8×10^3 cells/well (proliferative) or 8×10^3-10×10^3 cells/well (senescent). An MTT assay (Sigma-Aldrich, Merck KGaA, Darmstadt, Germany) was used to measure cell viability after 48-96 h of treatments. […] Absorbance was measured at 570 nm using a microplate reader (Victor Nivo; Perkin Elmer, Hamburg, Germany). For these assays, the effects of vehicle or treatments were expressed as the % of change of the non-treated cells. […]

The subject of another test is SKMel-103 cells. Put plainly: MTT cell viability assay in proliferative and palbociclib-induced senescent SKMel-103 cells. The protocol:
as §1
Therefore, the MTT assay was used to measure cell viability in proliferative and senescent cells. The model of cellular senescence induced by cyclin-dependent kinases (CDK) inhibition with Palbociclib (Baughn, L. B., et al. A Novel Orally Active Small Molecule Potently Induces G1 Arrest in Primary Myeloma Cells and Prevents Tumor Growth by Specific Inhibition of Cyclin-Dependent Kinase 4/6. Cancer Research (2006), 66(15), 7661-7667; Fry, D. W. et al. Specific inhibition of cyclin-dependent kinase 4/6 by PD 0332991 and associated antitumor activity in human tumor xenografts. Molecular Cancer Therapeutics, (2004) 3(11), 1427-1438) was used. Palbociclib is a CDK inhibitor, which promotes many markers of cellular senescence (Klein, M. E., et al. CDK4/6 Inhibitors: The Mechanism of Action May Not Be as Simple as Once Thought. Cancer Cell, (2018) 34(1), 9-20; Llanos, S., et al. Lysosomal trapping of palbociclib and its functional implications. Oncogene, (2019) 38(20), 3886-3902), including an enlarged and flattened cell shape and an enhanced senescence-associated β-galactosidase (SA-β-gal) activity (Figure 1A). Treatment with increasing concentrations of Tvs1 (0.1 nM to 3 µM) led to a dose-dependent reduction in viability of SKMel103 cells (Figure 1B). […]

In the case of `O=c1c(O)c(-c2ccc(O)c(O)c2)oc2cc(O)cc(O)c12` [Q, quercetin], the senolytic effect result in test [1] is reported as “failed”. With `CC1(C)CCC(c2ccc(Cl)cc2)=C(CN2CCN(c3ccc(C(=O)NS(=O)(=O)c4ccc(N[C@H](CCN5CCOCC5)CSc5ccccc5)c(S(=O)(=O)C(F)(F)F)c4)cc3)CC2)C1` [navitoclax], in test [2], the senolysis / viability result is “failed”. Further, the EC50 with SKMel-103 cells (Homo sapiens, SK-MEL-103, palbociclib-induced senescent SKMel-103 cells, 48h treatment, read-out: EC50 (senolytic potency)) stood at 0.4 µM. The SI in the test with SKMel-103 cells (senolytic index, ratio of the IC50 in proliferative and senescent cells) is 22. In the case of `O=c1c(O)c(-c2ccc(O)c(O)c2)oc2cc(O)ccc12` [F, fisetin], the senolytic effect entry in test [1] was “failed”. For the compound `C[C@H]1O[C@@H](O[C@H]2[C@@H](O)C[C@H](O[C@H]3[C@@H](O)C[C@H](O[C@H]4CC[C@@]5(C)[C@H](CC[C@@H]6[C@@H]5C[C@@H](O)[C@]5(C)[C@@H](C7=CC(=O)OC7)CC[C@]65O)C4)O[C@@H]3C)O[C@@H]2C)C[C@H](O)[C@@H]1O` [digoxin], the senolysis / viability entry in test [2] was “failed”. Moreover, the senolytic effect result in the test on SKMel-103 cells (tested senescent melanoma cells) is listed as “not effective”.
